From ChEMBL document CHEMBL3885881, “DrugMatrix”

Species: Rattus norvegicus
Test: DrugMatrix - Regimen: Daily Repeat
Assay type: toxicity, organism-based, Sprague-Dawley
Design: regimen Daily Repeat, gender Male, age 6-8 weeks
Settings: in vivo, po, route oral GAVAGE, […]; for ABSOLUTE BASOPHIL / ABSOLUTE EOSINOPHIL / ABSOLUTE LYMPHOCYTE / ABSOLUTE MONOCYTE / ABSOLUTE SEGMENTED NEUTROPHIL / BASOPHIL / EOSINOPHIL / ERYTHROCYTE COUNT / HEMATOCRIT / HEMOGLOBIN / LEUKOCYTE COUNT / LYMPHOCYTE / MEAN CORPUSCULAR HEMOGLOBIN / MEAN CORPUSCULAR HEMOGLOBIN CONCENTRATION / MEAN CORPUSCULAR VOLUME / MONOCYTE / NEUTROPHIL / NUCLEATED RED BLOOD CELLS / PLATELET COUNT: tissue Blood; for ALANINE AMINOTRANSFERASE / ALKALINE PHOSPHATASE / ASPARTATE AMINOTRANSFERASE / BLOOD UREA NITROGEN / CARBON DIOXIDE / CHLORIDE / CHOLESTEROL / CREATINE PHOSPHOKINASE / CREATININE / GLUCOSE / LACTATE DEHYDROGENASE / LIPASE / PHOSPHORUS / POTASSIUM / SODIUM / TOTAL BILIRUBIN / TOTAL PROTEIN / URIC ACID: tissue Plasma
[1] = 36 mg/kg, 120 h, dose level Low, time 5 day
[2] = 386 mg/kg, 72 h, dose level High, time 3 day
[3] = 386 mg/kg, 120 h, dose level High, time 5 day

c1ccc2c(c1)Nc1ccccc1S2 [PHENOTHIAZINE]
ABSOLUTE BASOPHIL [1]: 0 CELLS/uL
ABSOLUTE EOSINOPHIL [1]: 85 CELLS/uL
ABSOLUTE LYMPHOCYTE [1]: 7942.67 CELLS/uL
ABSOLUTE MONOCYTE [1]: 54.67 CELLS/uL
ABSOLUTE SEGMENTED NEUTROPHIL [1]: 984.33 CELLS/uL
BASOPHIL [1]: 0%
EOSINOPHIL [1]: 1%
ERYTHROCYTE COUNT [1]: 5.36 x10E6/uL
HEMATOCRIT [1]: 33.6%
HEMOGLOBIN [1]: 13.03 G/DL
LEUKOCYTE COUNT [1]: 9.07 x10E3/uL
LYMPHOCYTE [1]: 87.67%
MEAN CORPUSCULAR HEMOGLOBIN [1]: 24.33 pg
MEAN CORPUSCULAR HEMOGLOBIN CONCENTRATION [1]: 38.8 G/DL
MEAN CORPUSCULAR VOLUME [1]: 62.63 fL
MONOCYTE [1]: 0.67%
NEUTROPHIL [1]: 10.67%
NUCLEATED RED BLOOD CELLS [1]: 0 /100WBC
PLATELET COUNT [1]: 1083 x10E3/uL
ALANINE AMINOTRANSFERASE [1]: 54.67 u/L
ALKALINE PHOSPHATASE [1]: 331 u/L
ASPARTATE AMINOTRANSFERASE [1]: 95.67 u/L
BLOOD UREA NITROGEN [1]: 13.33 mg/dL
CARBON DIOXIDE [1]: 27 mmol/L
CHLORIDE [1]: 101.67 MEQ/L
CHOLESTEROL [1]: 59.67 mg/dL
CREATINE PHOSPHOKINASE [1]: 568.67 u/L
CREATININE [1]: 0.17 mg/dL
GLUCOSE [1]: 162.33 mg/dL
LACTATE DEHYDROGENASE [1]: 99.67 u/L
LIPASE [1]: 10.33 u/L
PHOSPHORUS [1]: 9.13 mg/dL
POTASSIUM [1]: 5.69 MEQ/L
SODIUM [1]: 147.3 MEQ/L
TOTAL BILIRUBIN [1]: 0.2 mg/dL
TOTAL PROTEIN [1]: 5.73 G/DL
URIC ACID [1]: 0.57 mg/dL
ABSOLUTE BASOPHIL [2]: 0 CELLS/uL
ABSOLUTE EOSINOPHIL [2]: 0 CELLS/uL
ABSOLUTE LYMPHOCYTE [2]: 9449.33 CELLS/uL
ABSOLUTE MONOCYTE [2]: 225 CELLS/uL
ABSOLUTE SEGMENTED NEUTROPHIL [2]: 1559 CELLS/uL
BASOPHIL [2]: 0%
EOSINOPHIL [2]: 0%
ERYTHROCYTE COUNT [2]: 6.26 x10E6/uL
HEMATOCRIT [2]: 38.97%
HEMOGLOBIN [2]: 14.93 G/DL
LEUKOCYTE COUNT [2]: 11.23 x10E3/uL
LYMPHOCYTE [2]: 84.67%
MEAN CORPUSCULAR HEMOGLOBIN [2]: 23.83 pg
MEAN CORPUSCULAR HEMOGLOBIN CONCENTRATION [2]: 38.3 G/DL
MEAN CORPUSCULAR VOLUME [2]: 62.3 fL
MONOCYTE [2]: 2%
NEUTROPHIL [2]: 13.33%
NUCLEATED RED BLOOD CELLS [2]: 0 /100WBC
PLATELET COUNT [2]: 976.33 x10E3/uL
ALANINE AMINOTRANSFERASE [2]: 78.33 u/L
ALKALINE PHOSPHATASE [2]: 354.33 u/L
ASPARTATE AMINOTRANSFERASE [2]: 109.33 u/L
BLOOD UREA NITROGEN [2]: 12.67 mg/dL
CARBON DIOXIDE [2]: 29.67 mmol/L
CHLORIDE [2]: 97 MEQ/L
CHOLESTEROL [2]: 128 mg/dL
CREATINE PHOSPHOKINASE [2]: 511 u/L
CREATININE [2]: 0.21 mg/dL
GLUCOSE [2]: 125 mg/dL
LACTATE DEHYDROGENASE [2]: 138.67 u/L
LIPASE [2]: 40.67 u/L
PHOSPHORUS [2]: 7.87 mg/dL
POTASSIUM [2]: 5.77 MEQ/L
SODIUM [2]: 142 MEQ/L
TOTAL BILIRUBIN [2]: 0.7 mg/dL
TOTAL PROTEIN [2]: 5.53 G/DL
URIC ACID [2]: 0.6 mg/dL
ABSOLUTE BASOPHIL [3]: 0 CELLS/uL
ABSOLUTE EOSINOPHIL [3]: 0 CELLS/uL
ABSOLUTE LYMPHOCYTE [3]: 8085.67 CELLS/uL
ABSOLUTE MONOCYTE [3]: 101 CELLS/uL
ABSOLUTE SEGMENTED NEUTROPHIL [3]: 1546.67 CELLS/uL
BASOPHIL [3]: 0%
EOSINOPHIL [3]: 0%
ERYTHROCYTE COUNT [3]: 5 x10E6/uL
HEMATOCRIT [3]: 31.27%
HEMOGLOBIN [3]: 12.03 G/DL
LEUKOCYTE COUNT [3]: 9.73 x10E3/uL
LYMPHOCYTE [3]: 82.67%
MEAN CORPUSCULAR HEMOGLOBIN [3]: 24.07 pg
MEAN CORPUSCULAR HEMOGLOBIN CONCENTRATION [3]: 38.53 G/DL
MEAN CORPUSCULAR VOLUME [3]: 62.43 fL
MONOCYTE [3]: 1%
NEUTROPHIL [3]: 16.33%
NUCLEATED RED BLOOD CELLS [3]: 0 /100WBC
PLATELET COUNT [3]: 1551.67 x10E3/uL
ALANINE AMINOTRANSFERASE [3]: 64.67 u/L
ALKALINE PHOSPHATASE [3]: 210.67 u/L
ASPARTATE AMINOTRANSFERASE [3]: 87.67 u/L
BLOOD UREA NITROGEN [3]: 15.33 mg/dL
CARBON DIOXIDE [3]: 27.67 mmol/L
CHLORIDE [3]: 101 MEQ/L
CHOLESTEROL [3]: 108.33 mg/dL
CREATINE PHOSPHOKINASE [3]: 236 u/L
CREATININE [3]: 0.23 mg/dL
GLUCOSE [3]: 135 mg/dL
LACTATE DEHYDROGENASE [3]: 68.67 u/L
LIPASE [3]: 11.33 u/L
PHOSPHORUS [3]: 9.1 mg/dL
POTASSIUM [3]: 5.66 MEQ/L
SODIUM [3]: 145.9 MEQ/L
TOTAL BILIRUBIN [3]: 0.33 mg/dL
TOTAL PROTEIN [3]: 5.3 G/DL
URIC ACID [3]: 0.77 mg/dL
